These results are taken from ChEMBL document CHEMBL1201862, “PubChem BioAssay data set” (2004).

Active and inactive are the calls of the source.

Experiment [1] addresses T1, Replicative DNA helicase DnaB (Mycobacterium tuberculosis, UniProt P9WMR3).
T1 sequence (P9WMR3 whole entry): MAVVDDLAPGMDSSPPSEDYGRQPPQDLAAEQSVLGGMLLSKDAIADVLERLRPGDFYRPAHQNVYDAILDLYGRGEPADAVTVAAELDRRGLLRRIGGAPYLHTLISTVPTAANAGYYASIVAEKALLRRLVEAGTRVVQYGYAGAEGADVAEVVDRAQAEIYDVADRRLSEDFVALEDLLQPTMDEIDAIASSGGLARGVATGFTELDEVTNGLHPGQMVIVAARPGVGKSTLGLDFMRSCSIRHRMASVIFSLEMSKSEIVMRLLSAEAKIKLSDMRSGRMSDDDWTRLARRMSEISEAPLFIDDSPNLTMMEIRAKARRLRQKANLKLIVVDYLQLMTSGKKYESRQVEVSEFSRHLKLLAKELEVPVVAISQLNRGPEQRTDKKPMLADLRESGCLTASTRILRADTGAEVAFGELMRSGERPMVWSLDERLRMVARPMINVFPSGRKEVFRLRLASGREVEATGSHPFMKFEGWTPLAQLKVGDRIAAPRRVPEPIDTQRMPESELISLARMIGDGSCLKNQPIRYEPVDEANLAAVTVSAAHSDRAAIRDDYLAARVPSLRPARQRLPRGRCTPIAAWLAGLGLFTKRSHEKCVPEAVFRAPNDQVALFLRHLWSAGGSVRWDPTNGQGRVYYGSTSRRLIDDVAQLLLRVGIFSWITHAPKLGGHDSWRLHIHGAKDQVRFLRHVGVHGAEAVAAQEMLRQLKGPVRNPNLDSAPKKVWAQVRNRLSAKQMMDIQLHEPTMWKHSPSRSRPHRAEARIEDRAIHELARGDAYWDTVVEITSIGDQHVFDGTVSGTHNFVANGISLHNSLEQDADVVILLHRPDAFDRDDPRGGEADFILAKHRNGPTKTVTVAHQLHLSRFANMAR
Nature of the experiment: DnaB intein splicing inhibitors, dose response, biochemical, cell-free fluorescence (AID 449749). The experiment is classed as functional.

Experiment [2] concerns the target Heat shock protein HSP 90-alpha (Homo sapiens, UniProt P07900). Type of experiment: functional, organism-based.
Experiment [3] in a line: control 3'UTR Renilla luciferase suppression, dose response, counter-screen for Shn3 inhibitor project, cell-based, Clone20-Shn3RL, cherry-picked (AID 624133). The experiment is classed as functional. (In general: Counterscreens check selectivity or assay interference.)
Experiment [4] is described as follows: Shn3 3'UTR reporter inhibitors, dose response, cell-based, Clone20 osteoblasts, firefly luciferase, cherry-picked (AID 624132).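 Further: firefly luciferase luminescence from reporter carrying the Shn3 3'UTR in osteoblasts.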 The experiment is classed as functional.
Experiment [5] is described as follows: growth suppression of beta-catenin-knockout colon cells, dose response, cell-based, HCT116, human colon tumor (AID 1045).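 Further: HCT116 colon tumor cells with beta catenin knocked out; cells exposed to compound for 60 hours.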 The experiment is classed as functional.
Experiment [6] deals with HEK293. Nature of the experiment: cells. The note with it: Homo sapiens.
Experiment [7] in a line: NIH-3T3 fibroblast cytotoxicity, dose response, cytotoxicity control, cell-based, fluorescence, Alamar Blue, secondary assay (AID 2327).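 Further: NIH-3T3 mouse fibroblasts cultured with fluconazole at 8 µg/mL.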 Type of experiment: functional. (Resazurin is reduced to fluorescent resorufin, in cell work by metabolically active cells.)
The target of a further experiment is T2, Protein RecA (Mycobacterium tuberculosis, UniProt P9WHJ3).
T2 sequence (P9WHJ3 whole entry): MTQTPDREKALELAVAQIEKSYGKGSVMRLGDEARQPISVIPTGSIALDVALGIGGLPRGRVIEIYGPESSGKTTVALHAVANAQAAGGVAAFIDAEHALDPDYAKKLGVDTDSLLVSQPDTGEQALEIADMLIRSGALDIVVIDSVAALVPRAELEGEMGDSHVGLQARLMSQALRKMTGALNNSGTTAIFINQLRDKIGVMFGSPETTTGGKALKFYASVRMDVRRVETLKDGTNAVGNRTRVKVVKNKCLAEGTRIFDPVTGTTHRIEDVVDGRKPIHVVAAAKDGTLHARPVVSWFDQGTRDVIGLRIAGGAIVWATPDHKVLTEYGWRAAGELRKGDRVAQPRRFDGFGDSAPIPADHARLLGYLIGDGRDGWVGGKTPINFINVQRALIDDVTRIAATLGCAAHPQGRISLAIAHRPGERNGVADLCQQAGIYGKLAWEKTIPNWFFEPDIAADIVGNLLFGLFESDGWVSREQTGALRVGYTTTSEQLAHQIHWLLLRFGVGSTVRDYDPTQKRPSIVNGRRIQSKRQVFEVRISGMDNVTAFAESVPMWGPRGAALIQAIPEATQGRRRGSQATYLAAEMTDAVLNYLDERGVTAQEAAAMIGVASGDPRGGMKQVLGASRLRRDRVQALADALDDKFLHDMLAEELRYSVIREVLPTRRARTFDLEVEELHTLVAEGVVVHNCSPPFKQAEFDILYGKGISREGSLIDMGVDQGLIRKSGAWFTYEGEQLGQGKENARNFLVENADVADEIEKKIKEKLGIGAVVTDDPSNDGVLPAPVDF
Nature of the experiment: Fluorescence Cell-Free Homogeneous Dose Retest to Identify Inhibitors of RecA-Intein Splicing Activity. [Related pubchem assays (depositor defined):AID2097, AID2223, AID489010, AID492950]. Type of experiment: functional.

Another experiment has as its target Melanocortin receptor 4 (Homo sapiens, UniProt P32245). Nature of the experiment: MC4R antagonist potency on cAMP, dose response, cell-based, TR-FRET, biased antagonists (AID 602298).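 Further: antagonist potency against agonist-stimulated cAMP production.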 Type of experiment: functional. (In general: Time-resolved FRET reads energy transfer from a long-lived donor to a nearby acceptor.)
Experiment [8] is described as follows: C. albicans growth with fluconazole, confirmation, fluorescence, retest (AID 2467). The experiment is classed as functional, cell-based.
Experiment [9] can be described thus: growth suppression of PTEN-null colon cells, dose response, cell-based, HCT116 PTEN knockout (AID 1047).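 Further: HCT116 colon tumor cells with PTEN knocked out; cells exposed to compound for 60 hours before readout; potency for loss of cell viability measured by luminescence.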 The experiment is classed as functional.
Experiment [10] in a line: nonselective inhibitors of cellular cAMP signaling, dose response, counter-screen for MC4R biased antagonist project, cell-based, TR-FRET cAMP detection (AID 602305).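 Further: U2OS cells stimulated with forskolin near its EC80 as the cAMP inducer; potency is for inhibition of forskolin-stimulated cAMP signaling.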 Type of experiment: functional.
Experiment [11] has as its system HEK293. The experiment in a line: cells. The note with it: Homo sapiens. This is another data set of the same source.
Experiment [12] has as its target T3, High affinity choline transporter 1 (Homo sapiens, UniProt Q9GZV3).
T3 sequence (Q9GZV3 whole entry): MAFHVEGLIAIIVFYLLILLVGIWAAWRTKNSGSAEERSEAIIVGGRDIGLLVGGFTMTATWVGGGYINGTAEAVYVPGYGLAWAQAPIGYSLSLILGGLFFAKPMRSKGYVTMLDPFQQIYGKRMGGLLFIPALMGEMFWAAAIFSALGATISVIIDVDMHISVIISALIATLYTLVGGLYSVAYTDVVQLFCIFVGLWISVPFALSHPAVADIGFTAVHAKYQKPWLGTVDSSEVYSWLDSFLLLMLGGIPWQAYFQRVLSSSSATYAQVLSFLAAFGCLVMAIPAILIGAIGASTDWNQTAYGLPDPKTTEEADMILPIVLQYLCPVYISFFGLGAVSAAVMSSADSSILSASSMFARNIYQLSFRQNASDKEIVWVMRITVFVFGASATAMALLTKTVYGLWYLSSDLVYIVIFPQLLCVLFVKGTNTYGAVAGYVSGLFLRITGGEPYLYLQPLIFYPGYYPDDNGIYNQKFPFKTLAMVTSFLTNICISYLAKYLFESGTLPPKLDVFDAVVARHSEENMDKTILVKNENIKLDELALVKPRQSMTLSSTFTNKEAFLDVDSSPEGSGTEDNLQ
The experiment in a line: CHT inhibitors, dose response, cell-based, 10-point CRC, membrane potential dye (AID 588401).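 Further: membrane potential dye fluorescence of choline-evoked depolarization via CHT.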 The experiment is classed as functional.

The target in experiment [13] is T3, High affinity choline transporter 1. Nature of the experiment: CHT inhibitors, dose response, cell-based, 5-point CRC, membrane potential dye (AID 504840). Type of experiment: functional.

Chain of Melanocortin receptor 4 (P32245 whole entry): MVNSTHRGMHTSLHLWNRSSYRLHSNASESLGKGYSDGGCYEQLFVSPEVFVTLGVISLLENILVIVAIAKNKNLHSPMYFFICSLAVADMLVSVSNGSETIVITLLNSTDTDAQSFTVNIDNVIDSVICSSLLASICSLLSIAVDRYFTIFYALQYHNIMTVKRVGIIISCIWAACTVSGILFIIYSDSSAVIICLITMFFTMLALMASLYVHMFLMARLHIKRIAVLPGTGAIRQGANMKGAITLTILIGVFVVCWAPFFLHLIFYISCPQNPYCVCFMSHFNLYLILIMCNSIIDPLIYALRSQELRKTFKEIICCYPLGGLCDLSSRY

As for `O=[N+]([O-])c1cc(S(=O)(=O)C(F)(F)F)ccc1Sc1nc2ccccc2s1`, the half-maximal activity concentration (AC50) is 1.75 µM (active) in experiment [1], 1.75 µM (active) in [2], 15.4 µM (active) in [3] and 2.45 µM (active) in [4]. Also, the concentration for a half-maximal effect (EC50) in experiment [5] was 7.45 µM (active); in the experiment with HEK293 [6] it was > 59.6 µM (inactive); in experiment [7], 5 µM (active); on Protein RecA, 0.249 µM (active); in [8], > 38 µM (not active); in [9] it was 8.04 µM (active). In addition, the EC50 in the experiment with HEK293 [11] was > 59.6 µM (inactive). For the same compound, the figures for the IC50 (on Melanocortin receptor 4; in [10]) were > 2.39 µM (active) and > 64.6 µM (inactive), respectively.
Regarding `CC1CCCCC1NC(=O)C1CCCN(S(=O)(=O)c2ccc(-n3cnnn3)cc2)C1` (stereo not given), the IC50 in experiment [12] is 3.98 µM (active); in [13] it was 5.75 µM (active).

By AC50 is commonly meant the concentration at which the activity in the assay is half-maximal. Usually EC50 stands for the concentration giving half of the maximal effect. As a reminder, the IC50 is the midpoint of a concentration-inhibition curve.
